In patent publication US8524978B2, “Composition for production of plant body having improved sugar content, and use thereof” (Japan Science and Technology Agency, priority 2007, dated 2013):

Columns and labels:
Type in all cases: in vivo
[1] = system: Vitis labrusca (Delaware); experiment: Cultivation of Vitis labrusca with GSSG or GSH, sensory test (Example 5)
Protocol: In the present invention, Vitis labrusca was cultivated. Specifically, immediately after flowering of a Vitis labrusca (Delaware) plant, a mixed solution of 1 mM gibberellin (GA3) and 1 mM of an agent was applied to anthotaxy of the plant. The agent was GSSG or GSH. Then, the plant was coated with the agent and thereafter produced fruit was harvested. For comparison, a Vitis labrusca plant was cultivated in the same way, except that GA3, but not GSSG or GSH, was applied, and fruit thereof was harvested and subjected to a sensory test described below.
The fruit harvested was subjected to a sensory test of sugar content. As a result, it was determined that fruit of the plant applied with GA3 and GSSG or GSH increased in sugar content compared to that of the plant applied with only GA3. Further, it was determined that the plant applied with GSSG and GA3 increased in size of fruit.

Lycopersicum esculentum [2] = experiment: Sugar content determination of Lycopersicum esculentum fruit with refractometer (Example 2); settings: 0.5 mM applied as in Example 1; compared to Cont and Cont2 Sunny conditions; ANOVA 5%
Text: Cultivated were Lycopersicum esculentum plants to which GSSG or GSH was applied by the method described in Example 1. Then, obtained fruit of the plants was subjected to sugar content determination using “Pocket” Refractometer APAL-1 (ATAGO CO., LTD.).
For comparison, Lycopersicum esculentum plants were cultivated under two types of conditions (referred to as “Cont” and “Cont2 Sunny”). In the Cont condition, Lycopersicum esculentum plants were cultivated by the same method as in Example 1, except that GSSG and GSH were not applied. In the Cont2 Sunny condition, a Lycopersicum esculentum plant was not applied with GSSG or GSH and was independently cultivated at a site sufficiently irradiated with sunlight so that illuminance on the Lycopersicum esculentum plant becomes 100%. In the Cont condition and a condition in which GSSG or GSH was applied, the plants were planted at intervals of 40 cm to 50 cm. In this case, a plant may intercept light irradiating another plant. Therefore, illuminance on such plants becomes less than 100%.
In the condition in which GSSG was applied, the condition in which GSH is applied, and the Cont condition, three Lycopersicum esculentum plants were cultivated, respectively. In the Cont2 Sunny condition, one Lycopersicum esculentum plant was cultivated. […]

Fragaria ananassa [3] = experiment: Sugar content determination of Fragaria ananassa fruit with refractometer (Example 10); settings: 50 mL of 0.2 or 0.5 mM GSSG, or 0.4 or 0.5 mM GSH, once a week at root; significance level 5%
Protocol: (§1) First, Fragaria ananassa seedlings were transplanted to a planter. In the planter, 6 L of vermiculite (ASAHI INDUSTRIES Co., LTD.), 3 L of KUREHA horticultural soil (KUREHA CORPORATION), and 3 L of vermiculite were layered as a lower, middle, and upper layers, respectively.
(§2) During cultivation of Fragaria ananassa plants, 50 mL of 0.2 mM or 0.5 mM GSSG or 50 mL of 0.4 mM or 0.5 mM GSH (adjusted with 0.1N NaOH to be at pH7) was applied once a week at a root per plant. The plants were grown for 63 days without being subjected to bud removal. For comparison, a Fragaria ananassa plant was grown under the same condition, except that GSSG and GSH were not applied. To the plants of any condition, 3 g of Kumiai phosphorate ammonium nitrate potassium S-604 (Chisso Asahi Fertilizer Co., Ltd.) was applied as an additional fertilizer once in 2 weeks.
Further, the fruit obtained was subjected to sugar content determination using “Pocket” Refractometer APAL-1 (ATAGO CO., LTD.). For comparison, fruit not applied with GSSG or GSH was also subjected to the sugar content determination. […] In FIG. 7, the vertical scale indicates sugar content (Brix, unit: %).

Lycopersicum esculentum [4] = experiment: Change of sugar content over time after one application of GSH or GSSG (Example 6); settings: 50 mL of 0.5 mM once at root 90 days after sowing; fruit harvested day 0 to day 4
Protocol: In the present example, a sugar content of a plant was determined after a substance for regulating an oxidation-reduction state of a cell was applied to the plant. The substance for regulating an oxidation-reduction state of a cell was GSH or GSSG. As in the case of Example 1, Lycopersicum esculentum was used as the plant. Specifically, the following operations were carried out.
Ninety days after sowing of Lycopersicum esculentum seeds, Lycopersicum esculentum plants were subjected to a GSH or GSSG treatment. The Lycopersicum esculentum plants were cultivated by the same method as in Example 1 except for the GSH or GSSG treatment. The GSH or GSSG treatment was such that 50 mL of 0.5 mM GSSH or 0.5 mM GSH (adjusted with 0.1N NaOH to be at pH 7) was applied once at a root per plant. Then, fruit of the plants was harvested every day from the 0th day until the 4th day after application of GSH or GSSG, and subjected to sugar content determination. […] FIG. 3 is a graph showing a determination result of relation between sugar content and the number of days from an application day of GSH or GSSG. In FIG. 3, the vertical scale indicates sugar content (Brix, unit: %) and the horizontal scale indicates days from the application day. In FIG. 3, lines labeled with circles, triangles, and squares show results of the plants applied with GSH, GSSG, and no GSH and no GSSG, respectively. […]

Lycopersicum esculentum [5] = experiment: Cultivation of Lycopersicum esculentum with GSSG or GSH, sensory tests of fruit (Example 1); settings: 50 mL of 0.5 mM at root twice a week, 60 days
Text: In the present example, Lycopersicum esculentum was cultivated with use of GSSG or GSH. Details of cultivation are described below.
First, Lycopersicum esculentum seedlings (TAKII & CO. Ltd., product name: Osama tomato reika) were transplanted into a hydroponic culture pot ( 1/2000 a). In the hidroponic culture pot, 6 L of vermiculite (ASAHI INDUSTRIES Co., LTD.), 3 L of KUREHA horticultural soil (KUREHA CORPORATION), and 3 L of vermiculite were layered as a lower, middle, and upper layers, respectively.
During the cultivation of Lycopersicum esculentum, 50 mL of 0.5 mM GSSG or 0.5 mM GSH (adjusted with 0.1N NaOH to be at pH 7) was applied twice a week at a root per plant. The Lycopersicum esculentum plants were grown for 60 days without being subjected to bud removal. Last 10 days was used as a harvest period for harvesting fruit of the plants. For comparison, a Lycopersicum esculentum plant was grown under the same condition, except that GSSG and GSH were not applied. To the plants of any condition, 3 g of Kumiai phosphorate ammonium nitrate potassium S-604 (Chisso Asahi Fertilizer Co., Ltd.) was applied as an additional fertilizer once in 2 weeks.
(§3) Next, the fruit harvested was subjected to sensory tests of sugar content and the like. As a result, it was determined that fruit of the plant applied with GSSG increased in sugar content compared to that of the plant not applied with GSSG or GSH. Further, it was determined that the plant applied with GSSG increased in number of fruit. It was determined that fruit of the plant applied with GSH increased in sugar content and acidity.

Fragaria ananassa [6] = experiment: Cultivation of Fragaria ananassa with GSSG or GSH, sensory tests of fruit (Example 10); settings: 50 mL of 0.2 or 0.5 mM GSSG, or 0.4 or 0.5 mM GSH, once a week at root, 63 days
Protocol: In the present example, Fragaria ananassa was cultivated with use of GSSG or GSH. Details of cultivation are described below.
as §1, §2
as §3, with “sugar content and decreased in acidity compared to” for “sugar content compared to”, “It was also determined that” for “It was determined that”

SMILES: N[C@@H](CCC(=O)N[C@@H](CS)C(=O)NCC(=O)O)C(=O)O [GSH, reduced glutathione]
- sugar content of fruit (sensory test) ([1]; 1 mM agent mixed with 1 mM gibberellin (GA3), applied to anthotaxy, compared to plant applied with only GA3): increased
- sugar content ([1]; applied without GA3): increased
- sugar content of fruit (Brix) (Lycopersicum esculentum [2]): significantly increased
- sugar content of fruit (Brix), ANOVA versus fruit not applied (Fragaria ananassa [3]): significant difference
- sugar content of fruit (Brix) after application (Lycopersicum esculentum [4]): rapidly improve
- acidity of fruit (sensory test) (Lycopersicum esculentum [5]): increased
- sugar content of fruit (sensory test) (Lycopersicum esculentum [5]; compared to plant not applied with GSSG or GSH): increased
- acidity of fruit (sensory test) (Fragaria ananassa [6]): increased
- sugar content of fruit (sensory test) (Fragaria ananassa [6]; vs plant not applied): increased
